According to the METLIN SMRT retention time set (Domingo-Almenara et al. 2019):

Experiment: gradient 5% acetonitrile 3 min, to 50% in 2 min, to 85% in 15 min, held 3 min, 100 µL/min
Details: column: Zorbax Extend-C18 2.1 x 50 mm; eluents: water / acetonitrile, 0.1% formic acid
How it was run: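 Data were gathered over 3 months by HPLC coupled to a quadrupole time-of-flight mass spectrometer, operated in positive and negative ionization mode. Mixtures of ~100 pure standards ran on a Zorbax Extend-C18 column (2.1 × 50 mm, 1.8 μm) at 100 μL/min, with water and acetonitrile each containing 0.1% formic acid and dead and dwell volumes of 40 μL and 900 μL. Retention time was read from adduct peaks picked by computer and checked manually.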

| SMILES | RP-LC retention time |
| --- | --- |
| CCCc1sc(NC(=O)Cn2nc3c(cc2=O)CCCC3)nc1C(=O)OC | 840 s |
| Cc1nc(OCC(=O)Nc2ccc(Cl)cc2Cl)c2ccccc2n1 | 831 s |
| CCc1ccccc1NC(=O)Cn1c(=O)n(-c2cccc(C)c2)c(=O)c2c1cc(C)n2C | 882 s |
| CCn1nccc1-c1cccc(-c2noc(-c3ccc(Cl)cc3)n2)c1 | 1340 s |
| CCc1ccc2c(c1)-c1ccccc1S(=O)(=O)N2CC(=O)NCc1ccncc1 | 703 s |
| CCN1C(=O)c2cccnc2Sc2cc(CNC(=O)c3ccc(OC)cc3OC)ccc21 | 784 s |
| CN(C)CCNCc1ccc(-c2cc(Cl)cc(Cl)c2)o1 | 597 s |
| CCCNC(=O)CSc1ncccc1C(=O)O | 599 s |
| Cc1ccn2cc(-c3ccc(NS(=O)(=O)c4ccccc4Cl)cc3)nc2n1 | 642 s |
| CC1(C)C(=O)N(c2ccc(C#N)c(C(F)(F)F)c2)C(=O)N1CCCCO | 888 s |
| COc1ccccc1-c1nc(Cn2nnc(-c3nc(-c4ccc(C)c(C)c4)no3)c2C)c(C)o1 | 1240 s |
| O=C(Nc1ccc(Oc2ccc(NC(=O)Nc3ccc([N+](=O)[O-])cc3)cc2)cc1)Nc1ccc([N+](=O)[O-])cc1 | 1110 s |
| Nc1nc2ccc(Cl)cc2n2c(-c3ccccc3)nnc12 | 867 s |
| O=C(NCC(F)(F)F)c1cnccn1 | 597 s |
| COc1cccc(Cc2nc(-c3cccc(-c4ccnn4C)c3)no2)c1 | 1010 s |
| COCCOCc1nc(C2CCCN2S(=O)(=O)c2cccc3nsnc23)no1 (centres undefined) | 759 s |
| Cc1cc(C)c2c(-n3cccc3)nn(CC(=O)NCCN(C)C)c2n1 | 630 s |
| Cc1ccccc1Nc1c(-c2ccc(N(C)C)cc2)nc2ccc(Cl)cn12 | 815 s |
| COc1ccc(-c2noc(CN3N=NC4C(=O)N(c5ccc(F)cc5)C(=O)C43)n2)c(OC)c1 (centres undefined) | 1170 s |

| SMILES | RP-LC retention time |
| --- | --- |
| Cn1cc(S(=O)(=O)NCc2ccc(F)cc2Cl)c2cccnc21 | 821 s |
| Cc1cc(C(=O)Nc2nnc(-c3ccn(C)n3)o2)c(C)o1 | 617 s |
| CCOc1ccc(CCNc2nc(-c3ccc(OC)c(OC)c3)no2)cc1 | 967 s |
| Cc1ccc(C(C)NC(=O)c2cn3ccncc3n2)c(C)c1 (centres undefined) | 787 s |
| CC(C)Cc1csc(-c2csc(S(=O)(=O)NCc3cccs3)c2)n1 | 1150 s |
| CCc1ccc2oc(C(=O)NCC(c3ccccc3OC)N(C)C)cc(=O)c2c1 (centres undefined) | 659 s |
| COCCNC(=O)Cc1ccc(NS(=O)(=O)c2ccccc2Cl)cc1 | 676 s |
| Cc1cccc(C)c1Nc1c(-c2ccccc2F)nc2ccc(Br)cn12 | 893 s |
| COc1ccc(CNC(=O)Cn2c(C)nc3c(sc4nc(-c5ccccc5)ccc43)c2=O)cc1 | 970 s |
| COC(=O)C(C)NC(=O)NCc1cccn1Cc1ccc(F)cc1 (centres undefined) | 814 s |
| C=CCN(c1ccccc1)c1nc(C(=O)OCC)nc2ccccc12 | 1000 s |
| Cc1ccccc1-n1ccn(Cc2nc(-c3ccc(C(C)(C)C)cc3)no2)c(=O)c1=O | 1050 s |
| Cc1cc2cc(CNC(=O)C(C)Oc3ccccc3)ccc2[nH]1 (centres undefined) | 792 s |
| Cn1ccc2c(cc(C(=O)NCc3cccc(C(F)(F)F)c3)n2C)c1=O | 771 s |
| Cc1cc(NCc2ccccn2)nc(-n2cc([N+](=O)[O-])cn2)n1 | 564 s |
| COc1cc(-c2nc3ncccn3c2NCc2ccc(Cl)cc2)ccc1OC(C)C | 808 s |
| COc1ccc(Cl)cc1C(=O)NCCOc1ccc(F)cc1 | 925 s |
| CCOC(=O)c1c(C)[nH]c(CCC(=O)Nc2cc(F)ccc2F)c1C | 933 s |

Further lines, results first:

| RP-LC retention time | SMILES |
| --- | --- |
| 589 s | CCCCN1CCN(C(=O)c2cn3cc(Cl)ccc3n2)CC1 |
| 796 s | CCN1C(=O)c2cccnc2Sc2cc(NC(=O)c3ccsc3)ccc21 |
| 761 s | O=C(NCc1csc(C2CCN(C(=O)c3ccc(Cl)cc3)CC2)n1)C1CCC1 |
| 965 s | O=C(NCCN1C(=O)C2(CCCCC2)C1c1ccccc1)Nc1ccccc1F (centres undefined) |
| 778 s | O=C(c1ccc(OCC2CCCN2C(=O)COc2ccc(F)cc2)cc1)N1CCOCC1 (centres undefined) |
| 824 s | CCn1c(=O)c(N2CCC(NC(=O)NCCc3ccccc3)CC2)nc2cccnc21 |
| 705 s | Cc1ncn(CC(=O)Nc2cccc(Cl)c2)c(=O)c1C |
| 1040 s | Cc1cc(NC(=O)C(=O)c2ccc[nH]2)ccc1Br |
| 814 s | CCCOc1nccnc1NC1CCN(C(=O)c2cccs2)CC1 |
| 759 s | Cc1ccc(NC(=O)N2CCC(c3nc(C(=O)N4CCCC4)c(C)o3)CC2)cc1 |
| 823 s | O=c1c(S(=O)(=O)N2CCCC2)cccn1Cc1cccc(F)c1 |
| 622 s | Cc1cccc(OCC(=O)NC2CCN(Cc3c(C)noc3C)CC2)c1 |
| 562 s | CN1CCO[C@@H](C(=O)NC2CC2)[C@@H]1c1ccccc1 |
| 882 s | CCS(=O)(=O)N1CC(=O)N(c2ccc(Cl)cc2C)C(C)(C(=O)NCc2ccc(F)cc2)C1 (centres undefined) |
| 687 s | Cc1c2cnn(-c3ccccc3)c(=O)c2c(C)n1CCCC(=O)NCC1CCCO1 (centres undefined) |
| 843 s | CCOC(=O)c1[nH]c(C)c(CCC(=O)N2CCC(C(=O)NCCc3ccc(C)cc3)CC2)c1C |
| 734 s | CCn1cc(S(=O)(=O)N2CCOc3ccc(NC(=O)C4CC4)cc3C2)cn1 |
| 584 s | Clc1cc2c(c(CN3CCN(c4ccccc4)CC3)c1)OCOC2 |
| 712 s | N#Cc1cccc(C(=O)NC2CCN(c3cc(-c4ccc(F)cc4)[nH]n3)C2)c1 (centres undefined) |
| 721 s | Cc1cc2[nH]c(C(=O)Nc3ccc(F)cc3Cl)c(CN3CCOCC3)c2s1 |
| 563 s | O=C(Cn1ccc2ccccc21)N1CCN(S(=O)(=O)C2CC2)CC1 |
| 1220 s | Cc1ccc(C)c(-c2nc(-c3ccc4c(c3)oc(=O)n4C)no2)c1 |
| 1300 s | Cc1cc(C)c(NC(=O)Cn2nc(N3CCC(C)CC3)c3ccccc3c2=O)c(C)c1 |
| 1140 s | CC1(C)Cc2c(C#N)c(N3CCN(C(=O)c4ccc([N+](=O)[O-])cc4)CC3)nc(-c3ccccc3)c2CO1 |
| 701 s | O=C(c1ccsc1)N1CCOc2ccc(N3CCOCC3)cc2C1 |
| 928 s | CCOc1ccccc1NC(=O)C1CCN(c2cnc(N3CCCCC3)nc2)CC1 |

| RP-LC retention time | SMILES |
| --- | --- |
| 1070 s | COC(=O)C1=C(C)N(C2CCCCC2)C(=O)C1(NC(=O)c1cccc(OC)c1)C(F)(F)F (centres undefined) |
| 722 s | O=C(CC(=O)Nc1ccccc1F)Nc1ccc2nc3n(c(=O)c2c1)CCCCC3 |
| 542 s | O=C(c1ccccn1)N1CCCC(c2n[nH]c(C3CC3)n2)C1 (centres undefined) |
| 971 s | O=C(CN1C(=O)C(C(=O)N2CCCC2)Sc2ccccc21)NCc1ccc(Br)cc1 (centres undefined) |
| 584 s | CCC(=O)N1CCCC1c1nc2ccccc2n1CC(=O)N1CCCC1 (centres undefined) |
| 550 s | CCN1CCC2(CC1)CC(c1nnc(C)o1)N(CCc1ccccc1)C2 (centres undefined) |
| 951 s | CSc1ccc(CNC(=O)C2CCCN(C(=O)Cc3cccc4ccccc34)C2)cc1 (centres undefined) |
| 921 s | CC(C)CC(=O)Nc1nc(-c2ccc3c(c2)N(C)C(=O)C(C)O3)cs1 (centres undefined) |
| 759 s | CCOC(=O)C1CCN(C(=O)Cn2c(=O)oc3ccc(C(=O)N4CCCCC4)cc32)CC1 |
| 920 s | COc1cc(NC(=O)c2ncoc2-c2ccc(C)o2)cc(OC)c1OC |
| 987 s | CCCc1ccc(S(=O)(=O)N2CCC(OCc3noc(C4CCCO4)n3)CC2)cc1 (centres undefined) |
| 688 s | Cc1cc2[nH]c(C(=O)NC(C)c3ccccc3)c(CN3CCOCC3)c2s1 (centres undefined) |
| 1100 s | COc1ccc(-c2nnc(-c3ccccc3Cl)o2)cc1S(=O)(=O)N1CCCCCC1 |
| 846 s | COCCCNC(=O)C1c2ccccc2C(=O)N(Cc2ccccc2)C12CCCC2 (centres undefined) |
| 1020 s | COc1ccc(-c2noc(C3CCCN3C(=O)c3cc(F)cc(F)c3)n2)cc1 (centres undefined) |
| 728 s | CCCN(C)C(=O)C1CCN(c2cnn(Cc3ccccc3)c(=O)c2)CC1 |
| 680 s | CCOc1ccc2ncc(S(=O)(=O)c3ccc(Cl)cc3)c(N3CCN(C)CC3)c2c1 |
| 918 s | COc1ccc(-n2c(=O)n(C)c(=O)c3cc(C(=O)Nc4ccc(C)cc4)cnc32)cc1 |
| 1250 s | O=C(Nc1cccc(F)c1)c1c(O)c2cccnc2n(-c2ccc(F)cc2)c1=O |
| 768 s | CCn1ccc2c(cc(C(=O)Nc3cccc(F)c3)n2C)c1=O |
| 746 s | O=C1CSc2ccc(S(=O)(=O)N3CCC(C(=O)NC4CCCC4)CC3)cc2N1 |
| 1030 s | O=C(CN1C(=O)CSc2cccn2-c2ccccc21)NCCC1=CCCCC1 |
| 683 s | CC12CC(NC(=O)N1c1cccc(C(=O)O)c1)c1ccccc1O2 (centres undefined) |
| 566 s | NC(=O)Cn1cnc2nc(N3CCC(C(=O)NC4CC4)CC3)sc2c1=O |
| 876 s | CC1CCCCN1S(=O)(=O)c1ccc2c(c1)CCC(=O)N2CC(=O)NCc1ccccc1 (centres undefined) |
| 678 s | Cc1cc(C)c2c(N3CCOCC3)nc(C(=O)NCC3CCCCC3)nc2n1 |
